This note sets out measurements from patent publication US12545653B2, “Compound as PPAR agonist and application thereof” (USA Elixiria Biotech Inc., priority 2019, dated 2026).

Where “and” joins values, the source holds several entries; their conditions need not be identical. Identical values can stand only once.

Series [1] can be described thus: Blood-brain barrier permeability: brain concentration after a single injection. It is filed as in vivo, rat. Conditions: male, rat, in vivo, ip, 10 mg/kg. The method, then: The blood-brain barrier permeability of carbonyl-containing cyclic compounds is determined in in vivo studies. Healthy male rats used in the study were divided into compound group and control group. […] The brains were dissected, heated immediately at boiling water for 2 min, homogenized with methanol, and centrifuged. The upper layer was collected and dried under vacuum to remove solvents, and then resuspended in methanol. The above samples are filtered through a 0.45 micron nylon membrane, and then 20 microL of sample were load into a high-performance liquid chromatographic (HPLC) system (Model LC-16P, Shimadzu, Japan) to perform quantitative analysis.

The test system of series [2] is dIoN-CCI rat model of trigeminal neuropathic pain. Conditions: in vivo.
Source text: A common rat model of trigeminal neuralgia is a chronic compression injury model (CCI) caused by ligation of the infraorbital nerve (IoN). In the present study, an improved rat model of trigeminal neuropathic pain was used, in which CCI is induced by ligation of distal segment of IoN (dIoN). Wild type male Sprague-Dawley rats with body weight 250 to 260 grams underwent dIoN-CCI surgery experiments. The mechanical threshold of pain in rats without surgery experiments will exceed 6 grams. If the dIoN-CCI surgery is successful, it will reduce the pain threshold to less than 2 grams.
The mice were divided into the following 11 groups with 4 to 5 mice in each group. The formulation used for transdermal treatment is cream. […] The compound administration of each group starts on the third day after successful dIoN-CCI surgery. […] The method for detecting rat facial hypersensitivity is performed using Von Frey filaments. An analysis of variance (ANOVA) and Dunnett post hoc comparison test are used to compare the significance of the differences between different groups of data. The difference is significant with P<0.05.
Series [3] relates to klotho gene. Briefly: In vivo brain transcriptional activity of klotho gene (RT-PCR of brain mRNA). On the set-up: species or system mouse. Conditions: 10 mg/kg body weight/day tail vein; for mRNA level of klotho gene in the brain of the mouse relative to vehicle control group: after 10 days of continuous injection; for fold induction at 10 mg/kg: Mus musculus, iv, 720 h, after 30 days of continuous injection, read-out: mRNA level of klotho gene in the brain of the mouse relative to vehicle control group. As to the method:
To verify this hypothesis, adult male Kunming mice were used in the experiments. […] The injection volume is 8 ml/kg body weight. Dimethyl sulfoxide (DMSO) was used as a vehicle control of the compounds. […] The RNA was then reverse-transcribed to the cDNA, and quantified by SYBR Green fluorescence quantitative PCR kit (HaiGene) and a quantitative PCR system (Bio-Rad Min-Opticon Type 2) were used for real-time fluorescent quantitative polymerase chain reaction (RT-PCR). The mouse gene primers were design as follows: • KLOTHO-forward 5′-[…]-3′; • LOTHO-reverse 5′-[…]-3′; • GAPDH-forward 5′-[…]-3′; • GAPDH-reverse 5′-[…]-3′.
Data analysis was performed using the 2^−ΔΔct method. Semi-quantitative values of gene expression were then normalized by the control mean.

For series [4], the system named is HEK 293T cells. Briefly: Inhibition of reactive oxygen species production (ROS-Glo H2O2 Assay). It is filed as cell-based, human. Conditions: 18 hours incubation. The method, then:
Mitochondrial reactive oxygen species-induced oxidative stress is the source of many diseases. This experiment is used to test whether the carbonyl-containing cyclic compounds provided by the present invention can reduce the production of reactive oxygen species. HEK 293T cells were divided into 96-well plates at 5000 cells per well, cultured in a 37° C. carbon dioxide incubator with serum-free Duchenne's Modified Eagle's Medium (DMEM) for 6 hours, and then representatives for compounds listed in Table 2 and 3 were added to a final concentration of 0, 0.1, 0.3, 1, 3, 10, 30 micromole/L, with each concentration in triplicate. After 18 hours of incubation, the reactive oxygen species detection kit (ROS-Glo™ H2O2 Assay) and the GloMax microplate fluorescence detector (Promega, USA) were used to detect reactive oxygen species production. At the same time, pioglitazone was used as a control. The amount of fluorescence is positively related to the production of reactive oxygen species. A three-parameter Sigmoid function curve was used to fit the obtained data. The abscissa represents the logarithmic value of the concentration, and the ordinate represents the percentage of reduced reactive oxygen species production relative to those of the control. Then EC50 value was calculated with professional software.

In series [5] the test system is klotho gene promoter. Briefly: In vitro transcriptional activity of klotho gene (KL-Luc-3 luciferase cell line). It counts as cell-based. Conditions: KL-Luc-3 cells; for EC50: 16 h, 16 hours incubation. An excerpt:
The activities of these carbonyl-containing cyclic compounds are indicated by the increased expression of klotho gene. […] The present invention retains the DNA fragment of the klotho gene promoter, but replaces the DNA sequence of the coding region of the klotho gene with those of luciferase, so that the degree of activation of the klotho gene promoter and the expression of the klotho gene will be sensitively determined by detecting the luciferase luminescence signal.
Klotho is an important downstream gene of PPARγ pathway. The following experiments tested the properties of the compounds in Table 2 and 3 to activate the klotho gene in vitro. First, a stable cell line, KL-Luc, was constructed. The klotho gene carried by the cell line retained the DNA sequence of klotho gene promoter, but the coding sequence of the klotho gene was replaced with luciferase. KL-Luc fragment includes a promoter sequence of the klotho gene (a DNA region of 18,000 base pairs in length upstream of the transcription start site of the gene) and a luciferase-encoding sequence. To construct the KL-Luc sequence containing lentiviral vector, the KL-Luc fragment was cloned into the pDONR vector using BP recombinase, so that the target fragment had attL recombination sites on both sides. Then the KL-Luc fragment was transferred from the pDONR vector to a lentiviral vector (without exogenous promoter) pLenti6/BLOCK-IT-DEST. The constructed lentiviral vector of the target fragment was then transfected into HEK293T cells, and then the KL-Luc gene lentiviral expression vector and the […] were co-transfected into HEK293T cells to perform lentiviral packaging. The virus was harvested, and virus titer was calculated. And the lentivirus was used to infect target cells. The stable strains were screened by adding drugs. Finally, monoclonal cell lines were selected from polyclonal cells by cell cloning. The effective luciferase expression of each monoclonal cell line was determined by quantitative polymerase chain reaction (qPCR). The inventors chose a third monoclonal cell line (KL-Luc-3) to continue the compound screening. The compounds of interest were the compounds in Table 2 and 3. At the same time, rosiglitazone and pioglitazone were used as a control. KL-Luc-3 cells were divided into 96-well plates at 5000 cells in 80 microL per well, cultured in a 37° C. carbon dioxide incubator with serum-free Duchenne's Modified Eagle's Medium (DMEM) for 6 hours, and then the compounds were added to a final concentration of 0, 0.1, 0.3, 1, 3, 10, 30 micromole/L, with each concentration in triplicate. After 16 hours of incubation, the SteadyLite (PerkinElmer, Waltham, MA) and the GloMax Microplate Luminometer (Promega, USA) were used for quantitation of luciferase activity. The amount of luminescence emitted from each well is positively related to the transcriptional activity of the klotho promoter. A three-parameter Sigmoid function curve was used to fit the obtained data. The abscissa represents the logarithmic value of the concentration, and the ordinate represents the percentage of the activity relative to those of the control. […] In Statistical analysis, the coefficient of variation is used to measure the robustness and repeatability of the experiment. […] The difference is significant with P<0.05. EC50 is a parameter of its activity. The lower the EC50 value, the higher the activity of corresponding compound.

Series [6] has as its system MPTP-HCl Parkinson's disease model mice. As to the kind of experiment: Parkinson's disease model (MPTP-HCl), beam traversal test. Conditions: MPTP-HCl/probenecid mice, 5 mg/kg body weight intraperitoneal daily, 35 days.
Procedure: Three month-old male wild type mice were used in the experiment. The treatment lasted for a total of 35 days. […] For all abovementioned groups, Motor skills were assessed on the 36th to 40th days after compound administration. Beam traversal test is a method commonly used in academia to detect movement coordination in animals with Parkinson's disease. […] The mice were first trained for 2 consecutive days, and taught to trained to traverse the length of the beam. On the day of the test, a mesh grid (1 cm squares) of corresponding width was placed over the beam surface leaving a ˜1 cm space between the grid and the beam surface. Animals were then videotaped while traversing the grid-surfaced beam for a total of five trials. An error was counted when, during a forward movement, a forelimb or hindlimb slipped through the grid. The number of errors made per step (referred to as “error per step scores”) was counted. An analysis of variance (ANOVA) and Dunnett post hoc comparison test are used to compare the significance of the differences between different groups of data. The difference is significant with P<0.05.

On to `CCc1ccc(CC/C=C/c2ccc3c(c2)C(=O)CC3)cc1` [ELB00824, (E)-6-(4-(4-ethylphenyl)but-1-en-1-yl)-2,3-dihydro-1H-inden-1-one], for which the maximum concentration (Cmax) in series [1] was 16.4 µM and 4830 ng/mL. The compound further displayed an AUC(0-t) in series [1] (AUC0-6 h) of 18700 ng·h/mL. Besides, the area under the curve AUC(0-t) in series [1] (AUC0-24 h) came to 31500 ng·h/mL. Also, the “side effect at the time of administration” value in series [2] was “no side effect”. In series [3], the “mRNA level of klotho gene in the brain of the mouse relative to vehicle control group” value is recorded as “more than twice” and the fold induction at 10 mg/kg is greater than 5. Moreover, in series [4] (0-30 micromole/L), the “inhibition of active oxygen production (up to), compared to the DMSO control” value was “up to 45%”. Besides, in series [5], the EC50 is 1.5 µM, the “induced transcriptional activity of klotho gene relative to pioglitazone” value was “more than 66 folds”, the “induced transcriptional activity of klotho gene relative to rosiglitazone” value is 6 folds and the “klotho EC50 as fraction of that of pioglitazone” value was “less than 1/67”. Also, in series [5], the “klotho EC50 as fraction of that of rosiglitazone” value is 1/6.
As for `CCc1ccc(CC/C=C/c2ccc3c(c2)OCCC3=O)cc1` [ELB001045, (E)-7-(4-(4-ethylphenyl)but-1-en-1-yl)chroman-4-one], the “number of errors per step in beam traversal test compared with disease control group” value in series [6] was “significantly lower”. Moreover, in series [3], the “mRNA level of klotho gene in the brain of the mouse relative to vehicle control group” value is reported as “more than twice” and the fold induction at 10 mg/kg is greater than 5. In addition, in series [5], the EC50 was less than 9.7 µM.
As to `CCc1ccc(CC/C=C/c2ccc3c(c2)C(=O)COC3)cc1` [ELB001046, (E)-6-(4-(4-ethylphenyl)but-1-en-1-yl)isochroman-4-one], the “number of errors per step in beam traversal test compared with disease control group” value in series [6] is “significantly lower”. Besides, in series [3], the “mRNA level of klotho gene in the brain of the mouse relative to vehicle control group” value is on record as “more than twice” and the fold induction at 10 mg/kg was greater than 5. Further, the EC50 in series [4] (Homo sapiens, HEK-293T, 18 h) is less than 10 µM.
Turning to `CCc1ccc(OC/C=C/c2ccc3c(c2)C(=O)CC3)cc1` [ELB001115, (E)-6-(3-(4-ethylphenoxy)prop-1-en-1-yl)-2,3-dihydro-1H-inden-1-one], in series [6], the “number of errors per step in beam traversal test compared with disease control group” value was “significantly lower”. Further, in series [3], the “mRNA level of klotho gene in the brain of the mouse relative to vehicle control group” value is “more than twice” and the fold induction at 10 mg/kg is greater than 5. The half-maximal effective concentration (EC50) in series [5] is less than 9.7 µM.
`COc1ccc(CC/C=C/c2ccc3c(c2)C(=O)CC3)cc1` [ELB001116, (E)-6-(4-(4-methoxyphenyl)but-1-en-1-yl)-2,3-dihydro-1H-inden-1-one]: the “number of errors per step in beam traversal test compared with disease control group” value in series [6] is listed as “significantly lower”. In series [3], the “mRNA level of klotho gene in the brain of the mouse relative to vehicle control group” value is on record as “more than twice” and the fold induction at 10 mg/kg is greater than 5. Also, the EC50 in series [5] was less than 9.7 µM.
Consider `CCc1ccc(CC/C=C/c2ccc3c(c2)C(=O)CC3)nc1` [ELB001125, (E)-6-(4-(5-ethylpyridin-2-yl)but-1-en-1-yl)-2,3-dihydro-1H-inden-1-one], for which the “number of errors per step in beam traversal test compared with disease control group” value in series [6] is on record as “significantly lower”. Also, in series [3], the “mRNA level of klotho gene in the brain of the mouse relative to vehicle control group” value is reported as “more than twice” and the fold induction at 10 mg/kg was greater than 5. For the same compound, the 50% effective concentration (EC50) in series [5] was less than 9.7 µM.

The term Cmax denotes the peak of the concentration-time curve. By AUC(0-t) is commonly meant exposure summed from dosing to a finite time, without extrapolation to infinity. The term EC50 denotes the concentration at which the effect is half-maximal.
